{
  "source": "patent US7625887B2",
  "about": "“Receptor agonists” (Takeda Pharmaceutical Company Limited, priority 2003, dated 2009)",
  "key": {"[1]": {"tested_on": "NCI-H716 cells", "experiment": "intracellular cAMP production increasing action in NCI-H716 cells", "format": "cell-based, human", "conditions": "bile acid 50 μM, 2 hrs; production amount in TLCA (50 μM) was 100%; Base 11"}, "[2]": {"tested_on": "rat intestine primary culture cells", "experiment": "GLP-1 secretion from rat intestine primary culture cells", "format": "cell-based", "conditions": "bile acid 100 μM, 150 min", "description": "Terminal ileum and colon mucous membrane were removed from rat (Wistar, male, Charles River Japan, Inc.) and subjected to an enzyme treatment to give a cell dispersion according to the following method.\nThe enzyme solution used was obtained by dissolving 5 mg/ml Collagenase (Sigma), 5 mg/ml Hyaluronidase (Sigma) and 0.5 mg/ml DNaseI (Sigma) in a medium. The medium used was Dulbecco's Modified Eagle Medium (DMEM, Invitrogen) supplemented with 4.5 g/l Glucose, 5% FBS (Invitrogen), 100 units/ml Penicillin (Invitrogen), 100 μg/ml Streptomycin (Invitrogen), 50 μg/ml Gentamicin (Invitrogen) and 20 mM Hepes (pH 7.3). After digestion by the enzyme solution at 37° C., the tissue sections were prepared into dispersed cells by passing through a pipette 7 times and the cells were collected. The collected cells were washed with a buffer (incubation buffer) obtained by adding 5.5 mM Glucose and 0.1% BSA to a modified Krebs-Ringer bicarbonate buffer (KRBH, 116 mM NaCl, 4.7 mM KCl, 1.2 mM KH2PO4, 1.2 mM MgSO4, 2.5 mM CaCl2, 25 mM NaHCO3, 24 mM HEPES, pH 7.3), and preincubated at 37° C. under 5% CO2 for 30 min. 0.1 μM Phorbol ester (Wako), 1% DPPIV inhibitor (Linco) and a test compound were added to the above-mentioned incubation buffer, and the obtained buffer was added to the cells after the aforementioned preincubation and incubated for 150 min. The culture supernatant was collected and cryopreserved. The concentration of GLP-1 released in the culture supernatant was measured using an ELISA kit (Linco)."}},
  "data": [
    {"smiles": "C[C@H](CCC(=O)NCCS(=O)(=O)O)[C@H]1CC[C@H]2[C@@H]3CC[C@@H]4C[C@H](O)CC[C@]4(C)[C@H]3CC[C@]12C", "note": "[TLCA, taurolithocholic acid, reference compound]", "values": [
      {"measurement": "cAMP production increasing activity (%)", "setting": "[1]", "result": 100, "unit": "%"},
      {"measurement": "GLP-1 (% relative to non-addition)", "setting": "[2]", "result": "290 % relative to non-addition"}
    ]}
  ]
}
